This is an account of results in patent US20250084095A1, “Aminopyrimidine Derivatives as Cyclin-Dependent Kinase Inhibitors” (Accutar Biotechnology Inc., priority 2023, published 2025).

The test system of one experiment is 22RV1 cells. The experiment is described as follows: Cell growth inhibition of 22RV1 cells (CellTiter-Glo). Format: cell-based. Conditions: Homo sapiens, 22Rv1, 120 h, 5 days, CellTiter-Glo, read-out: 22RV1 Cell Growh GI50. The method, then: For cell growth assay, 22RV1 (ATCC, CRL-2505) cells were seeded in 96-well plates at 1000 cells/well in 90 μl of RPMI1640 growth medium containing 20% FBS and 1% Penicillin Streptomycin, and then incubated at 37° C. overnight. The following day, the test compound was administered to the cells by using 1000× compound stock solution prepared in DMSO at various concentrations. 1000× compound stock solution was first diluted in culturing medium to 10×, then 10 uL compound medium was added to each well in the cell plates. After administration of the compound, the cells were then incubated at 37° C. for 5 days. Upon completion, the plates were equilibrated at room temperature for approximately 10 min. 100 μl of CellTiter-Glo® Reagent (Promega) was added to each well. The plates were then incubated at room temperature for 10 min and luminescence was recorded by EnSpire plate reader (PerkinElmer).
22RV1 cells were obtained from American Type Culture Collection (ATCC, CRL-2505). 22RV1 cells were seeded in 96-well plates at 1000 cells/well in 90 μL of RPMI1640 growth medium containing 10% FBS and 1% Penicillin Streptomycin, and then incubated at 37° C. overnight. The following day, the test compound was administered to the cells by using 1000× compound stock solution prepared in DMSO at various concentrations. […], then 10 uL compound medium was added to each well in the cell plates. After administration of the compound, the cells were then incubated at […] for 5 days. Upon completion, the plates were equilibrated at room temperature for approximately 10 minutes. 100 μL of CellTiter-Glo® Reagent (Promega) was added to each well. The plates were then incubated at room temperature for 10 minutes and luminescence was recorded by EnSpire plate reader (PerkinElmer).
(In general: In ATP-based viability assays light output follows the ATP content of the culture.)

In experiment [1] the test system is Phospho-Rb (Ser807/811) in MCF7 cells. The experiment is described as follows: Phospho-Rb expression inhibition in MCF7 cells quantified by in cell Western. Format: cell-based, human. Conditions: Homo sapiens, MCF7, 24 h, 24 hours, in cell Western, read-out: MCF7 pRb IC50. Here is the method:
MCF7 cells were obtained from American Type Culture Collection (ATCC, HTB-22). MCF7 cells were plated in 96-well plates (VWR #10062-900, or Coming #3904) in 90 μL culture medium at a density of 20,000 cells/well in the DMEM growth medium containing 10%/FBS and 1% Penicillin Streptomycin, and then incubated at 37° C. overnight. The following day, the test compound was administered to the cells by using 1000× compound stock solution prepared in DMSO at various concentrations. 1000× compound stock solution was first diluted in culturing medium to 10×, then 10 μL compound medium was added to each well in the cell plates. After administration of the compound, the cells were then incubated at 37° C. for 24 h. Upon completion, the cells were washed with PBS briefly. 150 μL/well of 4% formaldehyde was added and the plates were incubated at room temperature for 20 min. The cells were washed with PBS briefly, and permeabilized with 150 µL/well of ice cold 100% methanol for 10 min. The cells were washed with PBS briefly and blocked with 100 µL/well LI-COR blocking buffer for 1 h at room temperature with gentle shaking. The cells were incubated overnight at 4° C. with 50 μL primary antibody rabbit anti-Phospho-Rb (Ser807/811) (1: 500, Cell Signaling, #8516) and anti-Rb (1:200, Santa Cruz, sc-73598) diluted in Intercept Blocking Buffer (LI-COR, #927-60001) containing 0.1% Tween 20. The next day, the cells were washed with 200 μL PBS containing 0.1% Tween 20, 5×5 mins at room temperature with gentle shaking, and incubated with 50 μL secondary antibody, IRDye® 800CW Goat anti-Rabbit IgG (1:1000, LI-COR, #926-32211) and FRDye® 680RD Goat anti-Mouse IgG (1:1000, LI-COR, #926-68070), in LI-COR […] blocking buffer with 0.2% Tween 20 for 1 h at room temperature with gentle shaking. The cells were washed with 200 μL PBS containing 0.1% Tween 20, 5×5 min at room temperature with gentle shaking. The cells were washed with PBS for 5 mins. 100 μL fresh PBS was added to each well and the plates were imaged on a LI-COR Odyssey CLX plate reader.
MCF7 cells were obtained from American Type Culture Collection (ATCC, HTB-22). SW1573-CDK6 KO and SW1573-CDK4 KO cells were generated by the CRISPR-Cas9 technology. All cells were plated in 96-well plates (VWR #10062-900, or Corning #3904) in 90 uL culture medium at a density of 20,000 cells/well in the respective growth medium containing 10% FBS and 1% Penicillin Streptomycin, and then incubated at 37° C. overnight. The following day, the test compound was administered to the cells by using 1000× compound stock solution prepared in DMSO at various concentrations. 1000× compound stock solution was first diluted in culturing medium to 10×, then 10 uL compound medium was added to each well in the cell plates. After administration of the compound, the cells were then incubated at 37° C. for 24 hours. Upon completion, the cells were washed with PBS briefly. 150 uL/well of 4% formaldehyde was added and the plates were incubated at room temperature for 20 mins. The cells were washed with PBS briefly, and permeabilized with 150 uL/well of ice cold 100% methanol for 10 mins. The cells were washed with PBS briefly and blocked with 100 uL/well LI-COR blocking buffer for 1 hr at room temperature with gentle shaking. The cells were incubated overnight at 4° C. with 50 uL primary antibody rabbit anti-Phospho-Rb (Ser807/811) (1: 500, Cell Signaling, #8516) and anti-Rb (1:200, Santa Cruz, sc-73598) diluted in Intercept Blocking Buffer (LI-COR, #927-60001) containing 0.1% Tween 20. The next day, the cells were washed with 200 uL PBS containing 0.1% Tween 20, 5×5 mins at room temperature with gentle shaking, and incubated with 50 uL secondary antibody, IRDye® 800CW Goat anti-Rabbit IgG (1:1000, LI-COR, #926-32211) and IRDye®680RD Goat anti-Mouse IgG (1:1000, LI-COR, #926-68070), in LI-COR blocking buffer with 0.2% Tween 20 for 1 hr at room temperature with gentle shaking. […]

As to `CC1OCC(C)n2c1nc1c(F)cc(-c3nc(N[C@@H]4C[C@H]5CO[C@H](O5)[C@H]4O)ncc3Cl)cc12` (stereo partly drawn) [Compound 49, (1S,3R,4S,5R)-3-((5-chloro-4-(9-fluoro-1,4-dimethyl-3,4-dihydro-1H-benzo[4,5]imidazo[2,1-c][1,4]oxazin-7-yl)pyrimidin-2-yl)amino)-6,8-dioxabicyclo[3.2.1]octan-4-ol], in the experiment on 22RV1 cells, the 50% growth inhibitory concentration (GI50) (commonly the concentration that inhibits growth by half) fell in the range of 120 to 450 nM. In addition, the IC50 (as a rule, the point on the concentration scale where inhibition reaches its midpoint) in experiment [1] lay within 40 to 150 nM.

For the molecule `CC(C)n1c(C(C)(C)O)nc2c(F)cc(-c3nc(N[C@@H]4C[C@H]5OC[C@H](O5)[C@H]4O)ncc3Cl)cc21` [Compound 72, (1S,2S,3R,5S)-3-((5-chloro-4-(4-fluoro-2-(2-hydroxypropan-2-yl)-1-isopropyl-1H-benzo[d]imidazol-6-yl)pyrimidin-2-yl)amino)-6,8-dioxabicyclo[3.2.1]octan-2-ol], the concentration for 50% growth inhibition (GI50) in the experiment with 22RV1 cells lay in the range of 120 to 450 nM. The concentration for half-maximal inhibition (IC50) in experiment [1] lay within 40 to 150 nM.

With `CC(C)n1c(C(C)(C)O)nc2c(F)cc(-c3nc(N[C@@H]4C[C@@H]5CO[C@@H](O5)[C@H]4O)ncc3Cl)cc21` [Compound 137, (1R,3R,4S,5S)-3-((5-chloro-4-(4-fluoro-2-(2-hydroxypropan-2-yl)-1-isopropyl-1H-benzo[d]imidazol-6-yl)pyrimidin-2-yl)amino)-6,8-dioxabicyclo[3.2.1]octan-4-ol], in the experiment on 22RV1 cells, the GI50 was over 3000 nM. For the same molecule, in experiment [1], the IC50 was 150 to 1000 nM.

Regarding `CC(C)n1c(N2CC[C@@H](F)C2)nc2c(F)cc(-c3nc(N[C@@H]4C[C@H]5CO[C@H](O5)[C@H]4O)ncc3Cl)cc21` [Compound 151, (1S,3R,4S,5R)-3-((5-chloro-4-(4-fluoro-2-((R)-3-fluoropyrrolidin-1-yl)-1-isopropyl-1H-benzo[d]imidazol-6-yl)pyrimidin-2-yl)amino)-6,8-dioxabicyclo[3.2.1]octan-4-ol], the GI50 with 22RV1 cells lay within 120 to 450 nM. Further, the half-inhibitory concentration (IC50) in experiment [1] was in the range of 40 to 150 nM.

With `CC(C)n1c(-c2ccccc2)nc2c(F)cc(-c3nc(N[C@@H]4C[C@H]5CO[C@H](O5)[C@H]4O)ncc3Cl)cc21` [Compound 163, (1S,3R,4S,5R)-3-((5-chloro-4-(4-fluoro-1-isopropyl-2-phenyl-1H-benzo[d]imidazol-6-yl)pyrimidin-2-yl)amino)-6,8-dioxabicyclo[3.2.1]octan-4-ol], the concentration for 50% growth inhibition (GI50) in the experiment on 22RV1 cells was 120 to 450 nM. The IC50 in experiment [1] fell in the range of 40 to 150 nM.

On to `CC(C)(O)c1nc2c(F)cc(-c3nc(N[C@@H]4C[C@H]5CO[C@H](O5)[C@H]4O)ncc3Cl)cc2n1C1(CF)CC1` [Compound 167, (1S,3R,4S,5R)-3-((5-chloro-4-(4-fluoro-1-(1-(fluoromethyl)cyclopropyl)-2-(2-hydroxypropan-2-yl)-1H-benzo[d]imidazol-6-yl)pyrimidin-2-yl)amino)-6,8-dioxabicyclo[3.2.1]octan-4-ol], for which the 50% growth inhibitory concentration (GI50) with 22RV1 cells was at most 120 nM. The half-maximal inhibitory concentration (IC50) in experiment [1] lay in the range of 40 to 150 nM.

`CC(C)n1c(C2(C(F)F)CC2)nc2c(F)cc(-c3nc(N[C@@H]4C[C@H]5CO[C@H](O5)[C@H]4O)ncc3Cl)cc21` [Compound 168, (1S,3R,4S,5R)-3-((5-chloro-4-(2-(1-(difluoromethyl)cyclopropyl)-4-fluoro-1-isopropyl-1H-benzo[d]imidazol-6-yl)pyrimidin-2-yl)amino)-6,8-dioxabicyclo[3.2.1]octan-4-ol]: in the experiment on 22RV1 cells, the GI50 is at most 120 nM. Besides, the half-inhibitory concentration (IC50) in experiment [1] is 40 to 150 nM.

Turning to `CC(C)n1c(C(C)(C)C(F)F)nc2c(F)cc(-c3nc(N[C@@H]4C[C@H]5CO[C@H](O5)[C@H]4O)ncc3Cl)cc21` [Compound 169, (1S,3R,4S,5R)-3-((5-chloro-4-(2-(1,1-difluoro-2-methylpropan-2-yl)-4-fluoro-1-isopropyl-1H-benzo[d]imidazol-6-yl)pyrimidin-2-yl)amino)-6,8-dioxabicyclo[3.2.1]octan-4-ol], the GI50 with 22RV1 cells is at most 120 nM. Moreover, the half-maximal inhibitory concentration (IC50) in experiment [1] fell in the range of 40 to 150 nM.

Take `CC(C)n1c(C2(F)COC2)nc2c(F)cc(-c3nc(N[C@@H]4C[C@H]5CO[C@H](O5)[C@H]4O)ncc3Cl)cc21` [Compound 170, (1S,3R,4S,5R)-3-((5-chloro-4-(4-fluoro-2-(3-fluorooxetan-3-yl)-1-isopropyl-1H-benzo[d]imidazol-6-yl)pyrimidin-2-yl)amino)-6,8-dioxabicyclo[3.2.1]octan-4-ol]: the concentration for 50% growth inhibition (GI50) in the experiment on 22RV1 cells lay in the range of 450 to 3000 nM. Further, the IC50 in experiment [1] was 40 to 150 nM.

Turning to `CC(C)n1c(C2(O)COC2)nc2c(F)cc(-c3nc(N[C@@H]4C[C@H]5CO[C@H](O5)[C@H]4O)ncc3Cl)cc21` [Compound 172, (1S,3R,4S,5R)-3-((5-chloro-4-(4-fluoro-2-(3-hydroxyoxetan-3-yl)-1-isopropyl-1H-benzo[d]imidazol-6-yl)pyrimidin-2-yl)amino)-6,8-dioxabicyclo[3.2.1]octan-4-ol], in the experiment with 22RV1 cells, the 50% growth inhibitory concentration (GI50) is 120 to 450 nM. Besides, the concentration for half-maximal inhibition (IC50) in experiment [1] is 40 to 150 nM.

For `CC(C)N1CCOc2c(F)cc(-c3nc(N[C@@H]4C[C@H]5CO[C@H](O5)[C@H]4O)ncc3Cl)cc21` [Compound 173, (1S,3R,4S,5R)-3-((5-chloro-4-(8-fluoro-4-isopropyl-3,4-dihydro-2H-benzo[b][1,4]oxazin-6-yl)pyrimidin-2-yl)amino)-6,8-dioxabicyclo[3.2.1]octan-4-ol], the concentration for 50% growth inhibition (GI50) with 22RV1 cells was 120 to 450 nM. The IC50 in experiment [1] lay within 40 to 150 nM.

For the molecule `C[C@H]1COc2c(-c3nc(N[C@@H]4C[C@H]5CO[C@H](O5)[C@H]4O)ncc3Cl)cc(F)c3c2N1CCO3` [Compound 174, (1S,3R,4S,5R)-3-((5-chloro-4-((S)-9-fluoro-4-methyl-2,3,4,5-tetrahydro-1,6-dioxa-3a-azaphenalen-7-yl)pyrimidin-2-yl)amino)-6,8-dioxabicyclo[3.2.1]octan-4-ol], the concentration for 50% growth inhibition (GI50) in the experiment with 22RV1 cells lay in the range of 120 to 450 nM. For the same molecule, in experiment [1], the concentration for half-maximal inhibition (IC50) was in the range of 40 to 150 nM.
